Tested on: hair growth of flank organs
Assay: hamster flank organ hair mass assay (reduction of hair growth)
Format: in vivo, Male intact Golden Syrian hamsters
Details: for reducing hair growth (result in words): vehicle and test not given
Protocol: These organs produce hair in response to androgens in the hamster. To evaluate the effectiveness of a particular inhibitor in reducing hair growth, the flank organs of each of a group of hamsters are depilated by applying a thioglycolate based chemical depilatory (Surgex). To one organ of each animal 10 μl. of vehicle alone once a day is applied, while to the other organ of each animal an equal amount of vehicle containing the inhibitor is applied. After thirteen applications (one application per day for five days a week), the flank organs are shaved and the amount of recovered hair (hair mass) from each is weighed. […] Some preferred inhibitors were tested according to the above procedure.

[1] = Table 3: 5% in Vehicle A, pH 7.5
[2] = Table 3: 10% in Vehicle A, pH 7.5
[3] = Table 3: 10% in Vehicle F, pH 5.5
[4] = Table 3: 15% in Vehicle A, pH 7.5
[5] = Table 3: 20% in Vehicle A, pH 8.0
[6] = Table 3: 20% in Vehicle B, pH 7.0
[7] = Table 3: 20% in Vehicle F, pH 5.5

## Cc1c(C)c2c(c(C)c1O)CCC(C)(CCCC(C)CCCC(C)CCCC(C)C)O2 (racemic) [dl-α-tocopherol]
  reducing hair growth (result in words): effective in reducing hair growth

## O=C(O)C=Cc1ccc(O)c(O)c1 [Caffeic acid, 3,4-dihydroxycinnamic acid]
Dose 15%, Vehicle H, pH 4.0, thirteen applications
  Hair Mass Treated: 0.797 ± .13 mg
Dose 15%, Vehicle H, pH 4.0, vs vehicle treated side
  Percent Inhibition: 62 ± 7%
  reducing hair growth (result in words): effective in reducing hair growth

## CC(C(=O)O)c1ccc2c(c1)[nH]c1ccc(Cl)cc12 (stereo not drawn) [Carprofen, 6-chloro-α-methylcarbazole-2-acetic acid]
Dose 20%, Vehicle C, pH 6.0, thirteen applications
  Hair Mass Treated: 0.776 ± .11 mg
Dose 20%, Vehicle C, pH 6.0, vs vehicle treated side
  Percent Inhibition: 29.69%

## COc1ccc2c(c1)c(CC(=O)O)c(C)n2C(=O)c1ccc(Cl)cc1 [Indomethacin, 1-[p-chlorobenzoyl]-5-methoxy-2-methylindole-3-acetic acid]
[1]
  Hair Mass Treated: 1.248 ± .20 mg
  Percent Inhibition: 43.41 ± 7.75%
[2]
  Hair Mass Treated: 1.084 ± .11 mg
  Percent Inhibition: 53.32 ± 4.17%
[3]
  Hair Mass Treated: 0.679 ± .08 mg
  Percent Inhibition: 49.89 ± 5.54%
[4]
  Hair Mass Treated: 0.768 ± .10 mg
  Percent Inhibition: 68.77 ± 3.02%
[5]
  Hair Mass Treated: 0.307 ± .08 mg
  Percent Inhibition: 83.78 ± 3.66%
[6]
  Hair Mass Treated: 0.261 ± .01 mg
  Percent Inhibition: 83.37 ± 1.46%
[7]
  Hair Mass Treated: 0.324 ± .08 mg
  Percent Inhibition: 78.43 ± 4.39%

## Cc1cccc(Nc2ccccc2C(=O)O)c1C [Mefenamic acid, 2-[(2,3-dimethylphenyl)amino]benzoic acid]
Dose 10%, Vehicle A, pH 8.8, thirteen applications
  Hair Mass Treated: 0.518 ± .13 mg
Dose 10%, Vehicle A, pH 8.8, vs vehicle treated side
  Percent Inhibition: 67.18%

## CC(Cc1ccc(O)c(O)c1)C(C)Cc1ccc(O)c(O)c1 (stereo not drawn) [NDGA, nordihydroguaiaretic acid]
Dose 10%, Vehicle B, pH 6.5, thirteen applications
  Hair Mass Treated: 0.450 ± .11 mg
Dose 10%, Vehicle B, pH 6.5, vs vehicle treated side
  Percent Inhibition: 81 ± 4%
  reducing hair growth (result in words): effective in reducing hair growth

## COc1ccc2cc(CCC(C)=O)ccc2c1 [Nabumetone, 4-[6-methoxy-2-naphthyl]-2-butanone]
Dose 15%, Vehicle E, pH 6.0, thirteen applications
  Hair Mass Treated: 1.267 ± .23 mg
Dose 15%, Vehicle E, pH 6.0, vs vehicle treated side
  Percent Inhibition: 23.23%

## CCCOC(=O)c1cc(O)c(O)c(O)c1 [Propyl gallate, propyl gallate]
  reducing hair growth (result in words): effective in reducing hair growth

## O=c1c(O)c(-c2ccc(O)c(O)c2)oc2cc(O)cc(O)c12 [Quercetin, 3,3′,4′,5,7-pentahydroxy flavone]
Dose 5%, Vehicle G, pH 6.0, thirteen applications
  Hair Mass Treated: 1.100 ± .10 mg
Dose 5%, Vehicle G, pH 6.0, vs vehicle treated side
  Percent Inhibition: 27 ± 6%
Dose 10%, Vehicle E, pH 5.5, thirteen applications
  Hair Mass Treated: 0.419 ± .07 mg
Dose 10%, Vehicle E, pH 5.5, vs vehicle treated side
  Percent Inhibition: 83 ± 4%
  reducing hair growth (result in words): effective in reducing hair growth

## CN1C(C(=O)Nc2ccccn2)=C(O)c2sccc2S1(=O)=O [Tenoxican, 4-hydroxy-2-methyl-N-2-pyridinyl-2H-thieno[2,3-e]-1,2-thiazine-3-carboxamide-1,1-dioxide]
Dose 15%, Vehicle B, pH 8.0, thirteen applications
  Hair Mass Treated: 0.326 ± .08 mg
Dose 15%, Vehicle B, pH 8.0, vs vehicle treated side
  Percent Inhibition: 85.38%

## O=c1cc(-c2ccc(O)cc2)oc2cc(O)cc(O)c12 [apigenin, 4′,5,7-trihydroxy flavone]
  reducing hair growth (result in words): effective in reducing hair growth

Reference: US6414017B2, “Inhibition of hair growth” (The Gillette Company, priority 1993, dated 2002)
